Target: VHL (Homo sapiens (Human), UniProt P40337)
Assay: VHL fluorescence polarization (FP) competition assay
Type: binding

| SMILES | IC50 (1% in DMSO) [µM] | IC50 (10% in DMSO) [µM] |
| --- | --- | --- |
| CC(C)[C@@H](C(=O)N1C[C@](C)(O)C[C@H]1C(=O)O)N1Cc2ccccc2C1=O [Example 79, (2S,4R)-4-hydroxy-4-methyl-1-[(2S)-3-methyl-2-(1-oxo-2,3-dihydro-1H-isoindol-2-yl)butanoyl]pyrrolidine-2-carboxylic acid] | > 100 | > 100 |
| Cc1cnccc1-c1ccc(CNC(=O)[C@@H]2C[C@@H](O)CN2C(=O)[C@H](C(C)C)N2Cc3ccccc3C2=O)cc1 [Example 80, (2S,4R)-4-hydroxy-1-((S)-3-methyl-2-(1-oxoisoindolin-2-yl)butanoyl)-N-(4-(3-methylpyridin-4-yl)benzyl)pyrrolidine-2-carboxamide] | 22.4 | 38.9 |
| COc1ccc(CNC(=O)[C@@H]2C[C@@H](O)CN2C(=O)[C@H](C(C)C)N2Cc3ccccc3C2=O)cc1 [Example 81, (2S,4R)-4-hydroxy-N-(4-methoxybenzyl)-1-((S)-3-methyl-2-(1-oxoisoindolin-2-yl)butanoyl)pyrrolidine-2-carboxamide] | > 49 | 371 |
| Cc1ncsc1-c1ccc(CNC(=O)[C@@H]2C[C@@H](O)CN2C(=O)[C@H](C(C)C)N2Cc3ccccc3C2=O)c(F)c1 [Example 82, (2S,4R)—N-(2-fluoro-4-(4-methylthiazol-5-yl)benzyl)-4-hydroxy-1-((S)-3-methyl-2-(1-oxoisoindolin-2-yl)butanoyl)pyrrolidine-2-carboxamide] | 1.64 | 1.58 |
| COc1ccccc1CCC(=O)N[C@H](C(=O)N1C[C@H](O)C[C@H]1C(=O)NCc1ccc(-c2scnc2C)cc1)C(C)(C)C [Example 83, (2S,4R)-4-hydroxy-1-((S)-2-(3-(2-methoxyphenyl)propanamido)-3,3-dimethylbutanoyl)-N-(4-(4-methylthiazol-5-yl)benzyl)pyrrolidine-2-carboxamide] | 0.626 | 0.32 |
| Cc1ncsc1-c1ccc(CNC(=O)[C@@H]2C[C@@H](O)CN2C(=O)[C@@H](NC(=O)c2cccnc2)C(C)(C)C)cc1 [Example 84, N—((S)-1-((2S,4R)-4-hydroxy-2-(4-(4-methylthiazol-5-yl)benzylcarbamoyl)pyrrolidin-1-yl)-3,3-dimethyl-1-oxobutan-2-yl)nicotinamide] | 1.24 | 1.46 |
| CC(=O)NCC(=O)N1C[C@H](O)C[C@H]1C(=O)NCc1ccc(-c2scnc2C)cc1 [Example 86, (2S,4R)-1-(2-acetamidoacetyl)-4-hydroxy-N-(4-(4-methylthiazol-5-yl)benzyl)pyrrolidine-2-carboxamide] | 151 | 225 |
| CC(=O)O[C@@H](C)C(=O)N1C[C@H](O)C[C@H]1C(=O)NCc1ccc(-c2scnc2C)cc1 [Example 87, (S)-1-((2S,4R)-4-hydroxy-2-(4-(4-methylthiazol-5-yl)benzylcarbamoyl)pyrrolidin-1-yl)-1-oxopropan-2-yl acetate] | 384 | 263 |
| COc1ccc(C(=O)N2C[C@H](O)C[C@H]2C(=O)NCc2ccc(-c3scnc3C)cc2)c(C)c1 [Example 88, (2S,4R)-4-hydroxy-1-(4-methoxy-2-methylbenzoyl)-N-(4-(4-methylthiazol-5-yl)benzyl)pyrrolidine-2-carboxamide] | 20.4 | 39.2 |
| Cc1ncsc1-c1ccc(CNC(=O)[C@@H]2C[C@@H](O)CN2C(=O)C(N)C(F)(F)F)cc1 (stereo partly drawn) [Example 89, (2S,4R)-1-(2-amino-3,3,3-trifluoropropanoyl)-4-hydroxy-N-(4-(4-methylthiazol-5-yl)benzyl)pyrrolidine-2-carboxamide] | 60.6 | 139 |
| CC(=O)NC(C(=O)N1C[C@H](O)C[C@H]1C(=O)NCc1ccc(-c2scnc2C)cc1)C(F)(F)F (stereo partly drawn) [Example 90, (2S,4R)-1-(2-acetamido-3,3,3-trifluoropropanoyl)-4-hydroxy-N-(4-(4-methylthiazol-5-yl)benzyl)pyrrolidine-2-carboxamide] | 45.2 | 47.9 |
| CC(C)[C@@H](C(=O)N1C[C@H](O)C[C@H]1C(=O)NCc1ccc(N2CCOCC2)cc1)N1Cc2ccccc2C1=O [Example 91, (2S,4R)-4-hydroxy-1-((S)-3-methyl-2-(1-oxoisoindolin-2-yl)butanoyl)-N-(4-morpholinobenzyl)pyrrolidine-2-carboxamide] | > 100 |  |
| CC(C)[C@@H](C(=O)N1C[C@H](O)C[C@H]1C(=O)NCc1ccc(-c2ccnn2C)cc1)N1Cc2ccccc2C1=O [Example 92, (2S,4R)-4-hydroxy-N-(4-(1-methyl-1H-pyrazol-5-yl)benzyl)-1-((S)-3-methyl-2-(1-oxoisoindolin-2-yl)butanoyl)pyrrolidine-2-carboxamide] | 1.65 |  |
| Cc1ncsc1-c1ccc(CNC(=O)[C@@H]2C[C@@H](O)CN2C(=O)[C@H](C(C)C)N2Cc3ccccc3C2=O)cc1F [Example 93, (2S,4R)—N-(3-fluoro-4-(4-methylthiazol-5-yl)benzyl)-4-hydroxy-1-((S)-3-methyl-2-(1-oxoisoindolin-2-yl)butanoyl)pyrrolidine-2-carboxamide] | 1.2 |  |
| CC[C@H](C)[C@@H](C(=O)N1C[C@H](O)C[C@H]1C(=O)NCc1ccc(-c2scnc2C)cc1)N1Cc2ccc(F)cc2C1=O [Example 94, (2S,4R)-1-((2S,3S)-2-(6-fluoro-1-oxoisoindolin-2-yl)-3-methylpentanoyl)-4-hydroxy-N-(4-(4-methylthiazol-5-yl)benzyl)pyrrolidine-2-carboxamide] | 0.566 |  |
| COc1ccc(C)c(C(=O)N2C[C@H](O)C[C@H]2C(=O)NCc2ccc(-c3scnc3C)cc2)c1 [Example 95, (2S,4R)-4-hydroxy-1-(5-methoxy-2-methylbenzoyl)-N-(4-(4-methylthiazol-5-yl)benzyl)pyrrolidine-2-carboxamide] | 23.4 |  |
| CC(C)[C@@H](C(=O)N1C[C@H](O)C[C@H]1C(=O)NCc1ccc(-c2cncn2C)cc1)N1Cc2ccccc2C1=O [Example 96, (2S,4R)-4-hydroxy-N-(4-(1-methyl-1H-imidazol-5-yl)benzyl)-1-((S)-3-methyl-2-(1-oxoisoindolin-2-yl)butanoyl)pyrrolidine-2-carboxamide] | 35.4 |  |
| CC(C)[C@@H](C(=O)N1C[C@H](O)C[C@H]1C(=O)NCc1ccc(-c2cncs2)cc1)N1Cc2ccccc2C1=O [Example 97, (2S,4R)-4-hydroxy-1-((S)-3-methyl-2-(1-oxoisoindolin-2-yl)butanoyl)-N-(4-(thiazol-5-yl)benzyl)pyrrolidine-2-carboxamide] | 1.45 |  |
| Cc1ncsc1-c1ccc(CNC(=O)[C@@H]2C[C@@H](O)CN2C(=O)[C@H](C(C)C)N2CCCC2=O)cc1 [Example 98, (2S,4R)-4-hydroxy-1-((S)-3-methyl-2-(2-oxopyrrolidin-1-yl)butanoyl)-N-(4-(4-methylthiazol-5-yl)benzyl)pyrrolidine-2-carboxamide] | 4.15 |  |
| Cc1ncsc1-c1ccc(CNC(=O)[C@@H]2C[C@@H](O)CN2C(=O)[C@H](C(C)C)N2Cc3ncccc3C2=O)cc1 [Example 99, (2S,4R)-4-hydroxy-1-((S)-3-methyl-2-(5-oxo-5H-pyrrolo[3,4-b]pyridin-6(7H)-yl)butanoyl)-N-(4-(4-methylthiazol-5-yl)benzyl)pyrrolidine-2-carboxamide] | 0.418 |  |

— patent US10730870B2, “Compounds and methods for the enhanced degradation of targeted proteins” (Arvinas, Inc., priority 2015, dated 2020)
